From patent US20230085307A1, “PYRIDAZINONE COMPOUND AND HERBICIDE” (NISSAN CHEMICAL CORPORATION, priority 2019, published 2023)

What was measured:
wild oat = assay: Test Example 4: herbicidal effect by soil treatment (Table 19, symbol I); assay type: in vivo, wild oat (Avena fatua); settings: amount of applied herbicide 320 g/ha
Method in brief: (§1)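 Soil-surface application: an emulsion agent diluted with water to the predetermined dose is sprayed uniformly over seeds lying under roughly 1.5 cm of sterilized diluvial soil. Boxes stay in a greenhouse at 25° C. to 30° C. Three weeks later, each species is graded on previously defined criteria.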

chickweed [1] = assay: Test Example 4: herbicidal effect by soil treatment (Table 19, symbol P); assay type: in vivo, common chickweed (Stellaria media); settings: amount of applied herbicide 320 g/ha
Method in brief: as §1

oval-leafed pondweed [2] = assay: Test Example 2: herbicidal activity, application during weed generation under submerged conditions (Table 17, symbol C); assay type: in vivo, oval-leafed pondweed (Monochoria vaginalis); settings: AAH 320 g/ha; application during weed generation, submerged conditions
Method in brief: (§2)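 Effect on each weed is rated three weeks post-treatment, using the same scoring criteria as the preceding test. Plants grow from mixed-sown seed in flooded alluvial soil (4 cm water) at 25° C. to 30° C., and are treated at one to two leaves with diluted emulsion dropped onto the water.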

Chinese sprangletop = assay: Test Example 3: herbicidal effect by foliage application, Wagner pot (Table 18, symbol D); assay type: in vivo, chinese sprangletop (Leptochloa chinensis); settings: for herbicidal effect on Chinese sprangletop (D): 320 g/ha; for Herbicidal effect on D (Chinese sprangletop), foliage application: amount of applied herbicide 320 g/ha
Method in brief: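 Plants were sown in alluvial soil held under 0.1–0.5 cm standing water and grown 14 days in a greenhouse at 25–30 °C. An emulsifiable formulation, water-diluted to the set dose, was then sprayed onto the foliage, and effects were scored three weeks later using previously defined criteria.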

oval-leafed pondweed [3] = assay: Test Example 1: herbicidal activity, application before weed generation under submerged conditions (Table 16, symbol C); assay type: in vivo, oval-leafed pondweed (Monochoria vaginalis); settings: amount of applied herbicide 320 g/ha
Method in brief: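 Submerged Wagner pots (alluvial soil, 4 cm water) sown with weed seeds and planted with 2.5-leaf rice seedlings; emulsifiable concentrate diluted in water applied to water surface on sowing day. Held in greenhouse at 25-30 °C; injury scored 0-5 by herbicidal rate after three weeks.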

late watergrass = assay: Test Example 2: herbicidal activity, application during weed generation under submerged conditions (Table 17, symbol A); assay type: in vivo, late watergrass (Echinochloa oryzicola); settings: AAH 320 g/ha; application during weed generation, submerged conditions
Method in brief: as §2

Italian ryegrass = assay: Test Example 5: herbicidal effect by foliage application, plastic box (Table 20, symbol K); assay type: in vivo, Italian ryegrass (Lolium multiflorum); settings: for herbicidal effect on Italian ryegrass (K): foliage application, three weeks after application
Method in brief: (§3)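 Sow seeds spot-wise in sterilized diluvial soil; cover with ~1.5 cm soil. Grow 14 days in greenhouse, 25° C. to 30° C. Spray foliage with emulsion diluted to predetermined amount. Rate effect after 3 weeks.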

blackgrass = assay: Test Example 4: herbicidal effect by soil treatment (Table 19, symbol J); assay type: in vivo, blackgrass (Alopecurus myosuroides); settings: amount of applied herbicide 320 g/ha
Method in brief: as §1

chickweed [4] = assay: Test Example 5: herbicidal effect by foliage application, plastic box (Table 20, symbol P); assay type: in vivo, common chickweed (Stellaria media); settings: foliage application after 14-day growth, evaluated three weeks after application
Method in brief: as §3

persian speedwell = assay: Test Example 5: herbicidal effect by foliage application, plastic box (Table 20, symbol R); assay type: in vivo, Persian speedwell (Veronica persica); settings: for herbicidal effect on persian speedwell (R): foliage application, three weeks after application
Method in brief: as §3

redroot pigweed = assay: Test Example 4: herbicidal effect by soil treatment (Table 19, symbol N); assay type: in vivo, redroot pigweed (Amaranthus retroflexus); settings: amount of applied herbicide 320 g/ha
Method in brief: as §1

barnyard grass = assay: Test Example 4: herbicidal effect by soil treatment (Table 19, symbol H); assay type: in vivo, barnyard grass (Echinochloa crus-galli); settings: amount of applied herbicide 320 g/ha
Method in brief: as §1

false cleavers = assay: Test Example 4: herbicidal effect by soil treatment (Table 19, symbol Q); assay type: in vivo, false cleavers (Galium spurium); settings: amount of applied herbicide 320 g/ha
Method in brief: as §1

lambsquarters [5] = assay: Test Example 5: herbicidal effect by foliage application, plastic box (Table 20, symbol O); assay type: in vivo, lambsquarters (Chenopodium album); settings: for herbicidal effect on lambsquarters (O): foliage application, three weeks after application
Method in brief: as §3

lambsquarters [6] = assay: Test Example 4: herbicidal effect by soil treatment (Table 19, symbol O); assay type: in vivo, lambsquarters (Chenopodium album); settings: amount of applied herbicide 320 g/ha
Method in brief: as §1

Japanese bulrush = assay: Test Example 2: herbicidal activity, application during weed generation under submerged conditions (Table 17, symbol B); assay type: in vivo, Japanese bulrush (Schoenoplectus juncoides); settings: AAH 320 g/ha; application during weed generation, submerged conditions
Method in brief: as §2

[7] = 320 g/ha, foliage application after 14-day growth, evaluated three weeks after application
[8] = amount of applied herbicide 320 g/ha, foliage application after 14-day growth, evaluated three weeks after application

Row | SMILES | Herbicidal effect by soil treatment, I: wild oat (wild oat) | Herbicidal effect by soil treatment, P: chickweed (chickweed [1]) | herbicidal effect rating, C: oval-leafed pondweed (oval-leafed pondweed [2]) | herbicidal effect on Chinese sprangletop (D) (Chinese sprangletop) | Herbicidal effect, C: oval-leafed pondweed (oval-leafed pondweed [3]) | herbicidal effect rating, A: late watergrass (late watergrass) | Herbicidal effect by soil treatment, J: blackgrass (blackgrass) | Herbicidal effect by soil treatment, N: redroot pigweed (redroot pigweed) | Herbicidal effect by soil treatment, H: barnyard grass (barnyard grass) | Herbicidal effect by soil treatment, Q: false cleavers (false cleavers) | Herbicidal effect by soil treatment, O: lambsquarters (lambsquarters [6]) | herbicidal effect rating, B: Japanese bulrush (Japanese bulrush) | I: wild oat, herbicidal effect grade (wild oat) | P: chickweed, herbicidal effect grade (chickweed [1]) | Herbicidal effect on D (Chinese sprangletop), foliage application (Chinese sprangletop) | herbicidal effect on Italian ryegrass (K) (Italian ryegrass; 320 g/ha) | J: blackgrass, herbicidal effect grade (blackgrass) | herbicidal effect on persian speedwell (R) (persian speedwell; 320 g/ha) | N: redroot pigweed, herbicidal effect grade (redroot pigweed) | H: barnyard grass, herbicidal effect grade (barnyard grass) | other results
1 | Cc1nn(C)c(=O)c(-c2c(-c3ccc(Cl)c(F)c3)sc3c(F)cccc23)c1O [4-054] | 0 (Herbicidal rate of 5% or less (almost no effect)) | 4 (Herbicidal rate of 70% or more and less than 90%) | 0 (Herbicidal rate of 5% or less (almost no effect)) | 0 (Herbicidal rate of 5% or less (almost no effect)) | 0 (Herbicidal rate of 5% or less (almost no effect)) | 2 (Herbicidal rate of 20% or more and less than 40%) | 0 (Herbicidal rate of 5% or less (almost no effect)) | 2 (Herbicidal rate of 20% or more and less than 40%) | 0 (Herbicidal rate of 5% or less (almost no effect)) | 0 (Herbicidal rate of 5% or less (almost no effect)) | 1 (Herbicidal rate of 5% or more and less than 20%) | 2 (Herbicidal rate of 20% or more and less than 40%) | – | – | – | – | – | – | – | – | herbicidal effect on K: Italian ryegrass (evaluation grade 0-5) (Italian ryegrass; [7]): 1 (Herbicidal rate of 5% or more and less than 20%); herbicidal effect on P: chickweed (evaluation grade 0-5) (chickweed [4]; 320 g/ha): 5 (Herbicidal rate of 90% or more (almost completely withered)); herbicidal effect on R: persian speedwell (evaluation grade 0-5) (persian speedwell; [7]): 5 (Herbicidal rate of 90% or more (almost completely withered)); herbicidal effect on O: lambsquarters (evaluation grade 0-5) (lambsquarters [5]; [7]): 3 (Herbicidal rate of 40% or more and less than 70%)
2 | Cc1nn(C)c(=O)c(-c2c(-c3ccc(Cl)cc3)sc3c(C)cccc23)c1O [4-102] | 0 (Herbicidal rate of 5% or less (almost no effect)) | 0 (Herbicidal rate of 5% or less (almost no effect)) | 0 (Herbicidal rate of 5% or less (almost no effect)) | 3 (Herbicidal rate of 40% or more and less than 70%) | 0 (Herbicidal rate of 5% or less (almost no effect)) | 2 (Herbicidal rate of 20% or more and less than 40%) | 0 (Herbicidal rate of 5% or less (almost no effect)) | 4 (Herbicidal rate of 70% or more and less than 90%) | 0 (Herbicidal rate of 5% or less (almost no effect)) | 0 (Herbicidal rate of 5% or less (almost no effect)) | 3 (Herbicidal rate of 40% or more and less than 70%) | 0 (Herbicidal rate of 5% or less (almost no effect)) | – | – | – | – | – | – | – | – | Herbicidal effect by foliage application, K: Italian ryegrass (Italian ryegrass; [8]): 4 (Herbicidal rate of 70% or more and less than 90%); Herbicidal effect by foliage application, P: chickweed (chickweed [4]; amount of applied herbicide 320 g/ha): 5 (Herbicidal rate of 90% or more (almost completely withered)); Herbicidal effect by foliage application, R: persian speedwell (persian speedwell; [8]): 5 (Herbicidal rate of 90% or more (almost completely withered)); Herbicidal effect by foliage application, O: lambsquarters (lambsquarters [5]; [8]): 4 (Herbicidal rate of 70% or more and less than 90%)
3 | Cc1nn(C)c(=O)c(-c2c(-c3ccc(OC(C)C)cc3)oc3ccc(F)cc23)c1O [9-025] | – | – | 4 (Herbicidal rate of 70% or more and less than 90%) | – | 5 (Herbicidal rate of 90% or more (almost completely withered)) | 4 (Herbicidal rate of 70% or more and less than 90%) | – | – | – | – | – | 3 (Herbicidal rate of 40% or more and less than 70%) | 0 (Herbicidal rate of 5% or less (almost no effect)) | 0 (Herbicidal rate of 5% or less (almost no effect)) | 2 (Herbicidal rate of 20% or more and less than 40%) | 5 (Herbicidal rate of 90% or more (almost completely withered)) | 3 (Herbicidal rate of 40% or more and less than 70%) | 5 (Herbicidal rate of 90% or more (almost completely withered)) | 3 (Herbicidal rate of 40% or more and less than 70%) | 4 (Herbicidal rate of 70% or more and less than 90%) | Q: false cleavers, herbicidal effect grade (false cleavers): 0 (Herbicidal rate of 5% or less (almost no effect)); herbicidal effect on lambsquarters (O) (lambsquarters [5]; 320 g/ha): 4 (Herbicidal rate of 70% or more and less than 90%); O: lambsquarters, herbicidal effect grade (lambsquarters [6]): 4 (Herbicidal rate of 70% or more and less than 90%)
4 | Cc1nn(C)c(=O)c(-c2c(-c3ccc(OCC(C)C)cc3)oc3ccc(F)cc23)c1O [9-027] | – | – | 4 (Herbicidal rate of 70% or more and less than 90%) | – | 5 (Herbicidal rate of 90% or more (almost completely withered)) | 4 (Herbicidal rate of 70% or more and less than 90%) | – | – | – | – | – | 3 (Herbicidal rate of 40% or more and less than 70%) | 0 (Herbicidal rate of 5% or less (almost no effect)) | 1 (Herbicidal rate of 5% or more and less than 20%) | 2 (Herbicidal rate of 20% or more and less than 40%) | 5 (Herbicidal rate of 90% or more (almost completely withered)) | 4 (Herbicidal rate of 70% or more and less than 90%) | 5 (Herbicidal rate of 90% or more (almost completely withered)) | 5 (Herbicidal rate of 90% or more (almost completely withered)) | 4 (Herbicidal rate of 70% or more and less than 90%) | Q: false cleavers, herbicidal effect grade (false cleavers): 0 (Herbicidal rate of 5% or less (almost no effect)); herbicidal effect on lambsquarters (O) (lambsquarters [5]; 320 g/ha): 5 (Herbicidal rate of 90% or more (almost completely withered)); O: lambsquarters, herbicidal effect grade (lambsquarters [6]): 5 (Herbicidal rate of 90% or more (almost completely withered))
